No end group written: not given here.
Key:
[1] = assay type: in vitro ADME, human
Experimental: The ratio of intensity of each pick is represented, relative to its own control. The R residue was mutated to K (Mut1-DPT-C9h), N (Mut2-DPT-C9h) or A (Mut3-DPT-C9h). Round: control DPT-C9h peptide (SEQ ID NO:6), Square: Mut1-DPT-C9h, Triangle: Mut2-DPT-C9h, Diamond: Mut3-DPT-C9h.
Analysis Peptide Stability in Human Serum
Analysis of peptides degradation was done by Proteominer and Maldi-Tof as previously described.

[2] = test system: human breast cancer xenograft; conditions: injected in mice bearing human breast cancer xenograft; cited from earlier work
[3] = test system: human cell lines; conditions: cited from earlier work
[4] = test system: tumoral B cells isolated from chronic lymphocyte leukemia patients; conditions: cited from earlier work

degradation upon contact with human serum [1]	Substance	size of tumor [2]	induction of apoptosis [3]	effect on healthy cells [4]	apoptotic effect ([4]; tumoral B cells isolated from chronic lymphocyte leukemia patients)
not degraded	VKKKKIKAEIKIYVETLDDIFEQWAHSEDL [Mut3-DPT-C9h, VKKKKIKAEIKI-YVETLDDIFEQWAHSEDL]	–	–	–	–
–	VKKKKIKREIKI-YVETLDDIFEQWAHSEDL (VKKKKIKREIKIYVETLDDIFEQWAHSEDL; cell penetrating peptide) [DPT-C9h]	important reduction	induces apoptosis	without effect	specific apoptotic effect

Reference: US9353155B2, “Cell-penetrating peptides” (Universite Pierre et Marie Curie (Paris 6), priority 2011, dated 2016)
